Data published in patent publication US20120328516A1, “METHOD OF RADIOTHERAPY USING A RADIOLABELLED RGD PEPTIDE” (priority 2009, published 2012).
Starred links: 1 amine or outer side, 2 acyl side, 3 side chain; linkers in the order of their positions; H or OH if unused. Positions of bridges follow the written chain, without caps; N, C: chain ends. Residues, ends and D or L forms follow the SMILES beside them. Groups on a side chain read outwards from the residue. *: point of attachment. X3 = C/C(=N/O)C(C)(C)NCCC(CCNC(C)(C)/C(C)=N\O)CCN*; Glutaryl = O=C(CCCC(=O)[*:2])[*:1]; X2 = NC(=O)COCC(=O)NCCOCCOCCOCCN*

What was measured:
subcutaneous U87 tumour = assay: co-registered coronal micro-PET/CT imaging of mouse bearing a subcutaneous U87 tumour; format: in vivo, C57/BI6 mouse; details: same mouse imaged with ^18F-FDG (3A) and ^18F-fluciclatide (3B); comparison of the two images
Text: FIGS. 3A and 3B show co-registered coronal micro-PET/CT images of the same C57/BI6 mouse bearing a subcutaneous U87 tumour on its left side. The emission image in 3A is that of ^18F-FDG and that in 3B is of ^18F-fluciclatide.

alphavbeta3/5 integrins = assay: co-registered contrast-enhanced CT and SPECT emission imaging of a necrotic lymph node metastasis for a primary breast cancer; format: in vivo
Text: The emission image was obtained for ^99mTc-maraciclatide. The necrotic centre in the CT image which corresponds to no uptake of the agent in the SPECT image.

SMILES | tumour uptake volume (subcutaneous U87 tumour) | uptake of the agent in the necrotic centre (alphavbeta3/5 integrins; SPECT image, necrotic centre of lymph node metastasis seen in CT image) | uptake in the sternum (alphavbeta3/5 integrins; concluded to be due to bone marrow uptake) | region surrounding the necrotic centre due to angiogenesis and other expressions of alphavbeta3/5 integrins (alphavbeta3/5 integrins; emission image co-registered with CT)
OC[C@H]1OC(O)[C@H](F)[C@@H](O)[C@@H]1O (stereo partly shown) [^18F-FDG, fluorodeoxyglucose, reference compound] | difference in tumour uptake volumes |  |  | 
C/C(=N/O)C(C)(C)NCCC(CCNC(=O)CCCC(=O)NCCCC[C@@H]1NC(=O)CSC[C@@H](C(=O)NCCOCCOCCOCCNC(=O)COCC(N)=O)NC(=O)[C@H](Cc2ccccc2)NC(=O)[C@@H]2CSSC[C@H](NC1=O)C(=O)N[C@@H](CCCNC(=N)N)C(=O)NCC(=O)N[C@@H](CC(=O)O)C(=O)N2)CCNC(C)(C)/C(C)=N\O (stereo partly shown) [^99mTc-maraciclatide, metal not drawn] ({CH2CO}-K([Glutaryl-X3])CRGDCFC-X2; disulfide 2-6; thioether N-8) |  | no uptake | uptake in the sternum | highlighted
